According to US5874235A, “Screening assays for cancer chemopreventative agents” (The Johns Hopkins University, priority 1997, dated 1999):
Where two headings read alike, the source gives them in different places.

Key:
SW480 cells [1] = type: cell-based, human
Procedure: FIGS. 1A, 1B and 1C NSAID induce apoptosis in human colorectal cancer cells. In FIG. 1A, HCT116 and SW480 cells were treated with indomethacin (INDO) (300 μM) or SUS (125 μM for HCT116 and 200 μM for SW480 cells). Cells were collected at the indicated times, fixed and stained with Hoechst 33258 (23). The cells were counted and those with fragmented nuclei were scored as apoptotic. In FIG. 1B, HCT116 and SW480 cells were treated with SUS or INDO for 60 hours, harvested and stained as described above. Cells treated with SUS or INDO show the hallmarks of apoptosis.
This death appeared to be apoptotic, as it was accompanied by nuclear condensation and fragmentation (FIG. 1B) and exposure of phosphatidylserine groups on the cell surface, two hallmarks of apoptosis (11, 12).

COX in SW480 cells = assay: COX activity in treated cells; type: cell-based, human
SW480 cells [2] = assay: cells; type: cell-based, human; details: for increase in arachidonic acid: apoptosis-inducing doses of SUS
Procedure: (§1) FIGS. 4A, 4B, 4C, 4D, 4E and 4F. The role of arachidonic acid in NSAID-mediated apoptosis. […] HCT116 and SW480 cells were treated with the indicated concentrations of SUS or INDO. Arachidonic acid (AA) levels were determined by measuring release of ^3 H-AA into the media as previously described (18). Data are indicated as the mean of three replicates with the error bars corresponding to the standard deviation. In addition, the nature of the released radiolabeled material was evaluated by thin layer chromatography as previously described (28). […] HCT116 and SW480 cells were incubated with ^3 H-choline chloride (0.5 mCi ml^-1, 80 Ci mmol^-1, New England Nuclear) for 48 hours. After labeling, cells were washed with HBSS (Gibco) and treated with SUS or INDO for the indicated times. Sphingomyelin measurements were performed using the bacterial sphingomyelinase method as previously described (18). Sphingomyelin levels at each time point are plotted as a percentage of that in untreated control cells. For each point, the mean of at least two independent experiments is presented with the error bars corresponding to the standard deviations. […] SW480 cells were treated with 200 μM arachidonic acid (AA), SUS (SUS) or behenic acid as a control fatty acid (FA) as indicated. […] SW480 cells were treated with suboptimal doses (100 μM) of arachidonic acid (AA), SUS (SUS), or both (AA+SUS) as indicated. After 48 hours of treatment, apoptosis and ceramide increases were assessed as described for FIGS. 1 and 3, respectively. Ceramide increases (left axis) were expressed as fold increases relative to untreated cells. Apoptosis (right axis) was expressed as percent apoptotic cells minus percent apoptotic cells in untreated cells (5.6%+/-2.4). Data are indicated as the mean of duplicates with the error bars corresponding to the standard deviation.
Arachidonic acid is known to stimulate neutral sphingomyelinase (18), which catalyzes the conversion of sphingomyelin to ceramide. We therefore considered the possibility that inhibition of COX activity might lead to increases in arachidonic acid, the substrate for COX. To test this hypothesis, we first determined whether SUS stimulated arachidonic acid accumulation. In both SW480 and HCT 116 cells, apoptosis-inducing doses of SUS increased arachidonic acid by 2 to 3 fold at 24 hours and by approximately 5 fold at 48 hours (FIGS. 4A and 4B). The arachidonic acid increase following SUS treatment was as great as that following treatment with mellitin, a known activator of phospholipase A2. Arachidonic acid levels in HCT116 cells increased 3.5 fold one hour after treatment with 1 μM mellitin. Likewise, arachidonic acid levels increased 2.9 fold in SW480 cells one hour after mellitin treatment. Arachidonic acid (AA) levels were determined by measuring release of ^3 H-AA into the media as previously described (18). The nature of released radiolabeled material was evaluated by thin layer chromatography analysis as previously described (28).

HCT116 cells = assay: Sphingomyelin levels, bacterial sphingomyelinase method; type: cell-based, human
Procedure: as §1
(§2) To test whether the increased ceramide was associated with evidence of augmented sphingomyelinase activity, we measured total sphingomyelin levels after SUS treatment. […] We also measured neutral sphingomyelinase activity in lysates from the treated cells and no differences were found. Neutral sphingomyelinase activity was assayed as described (18). After cell lysis, protein concentrations were determined using the Bradford method (Bio-Rad) and […] cellular protein was used in each assay. Neutral sphingomyelinase activity was determined by measuring the rate of hydrolysis of ^14 C-labelled sphingomyelin (Amersham). SW480 and HCT116 cell lines were treated with SUS (50, 200, and 600 μM) for 6 to 24 hours.

SW480 cells [3] = assay: as above; type: cell-based, human
Procedure: as §1, §2

[4] = test system: primary human diploid fibroblast (HDF); assay: Ceramide levels in primary fibroblasts; type: cell-based; details: 200 μM SUS, 48 hours, read-out: increase in ceramide levels
Procedure: Ceramide levels were measured using the Escherichia coli diacylglycerol (DAG) kinase assay as previously described (30) with the following modifications. After the initial lipid extraction, phases were broken by adding 2 ml chloroform and 2 ml 1M NaCl and lipids were washed with 1M NaCl prior to drying under nitrogen (32, 33). After solubilization, samples were sonicated for 15 seconds. The DAG reaction was performed for 30 minutes at 25° C. in a 100 μl reaction volume with 3.5 μg DAG kinase (Calbiochem) and […] γ^32 P-ATP (Dupont NEN, 6000 Ci/mmol). After extraction of the labeled lipids, the lower chloroform phase was washed with 1% HCl prior to drying under nitrogen. The solvent mixture for thin layer chromatography was chloroform:acetone:methanol:acetic acid:water (10:4:3:2:1). Samples were quantitated using a Phosphorimager (Molecular Dynamics).
This ability of SUS is not limited to colon cancer cells; primary fibroblasts and immortalized keratinocytes can increase ceramide levels and undergo apoptosis in response to SUS. […] Forty-eight hours after exposure to 200 μM SUS greater than 70% of the cells had undergone apoptosis and ceramide levels were 8.2 and 4.7 fold increased in HDF and HaCat cells, respectively. […]

CSc1ccc(/C=C2/C(C)=C(CC(=O)O)c3cc(F)ccc32)cc1 [SUS, sulindac sulfide]
apoptosis (SW480 cells [1]; 200 μM SUS, 16 hours): the majority of cells had not yet undergone apoptosis
apoptosis (SW480 cells [1]; SUS 200 μM, with or without 10 μM CHX, 48 hours): underwent apoptosis
COX activity, % of controls (COX in SW480 cells; 50 μM SUS): 74+/-22%
COX activity, % of controls (COX in SW480 cells; 200 μM SUS): 37+/-27%
fold induction at 200 µM (SW480 cells [2]; Homo sapiens, SW480, 200 μM SUS, 16 hours, read-out: increase in arachidonic acid): 3.4
increase in arachidonic acid (SW480 cells [2]; 24 hours): 2 to 3 fold
increase in arachidonic acid (SW480 cells [2]; 48 hours): approximately 5 fold
decrease in sphingomyelin levels (HCT116 cells; 48 hours after SUS treatment): 40-50%
decrease in sphingomyelin levels (HCT116 cells; suboptimal doses of SUS): inadequate to decrease sphingomyelin levels
decrease in sphingomyelin levels (SW480 cells [3]; 48 hours after SUS treatment): 40-50%
decrease in sphingomyelin levels (SW480 cells [3]; suboptimal doses of SUS): inadequate to decrease sphingomyelin levels
fold induction at 200 µM [4]: 8.2
